In patent US20070249648A1, “Novel Diazaspiroalkanes and Their Use for Treatment of Ccr8 Mediated Diseases” (priority 2003, published 2007):
Counter-ions that a name gives are not always drawn.

Biological target: T1, human recombinant chemokine CCR8 receptor (Homo sapiens, UniProt P51685)
T1 construct: purchased Euroscreen ES-136-M; host or cells: CHO-K1 cells (membrane preparation)
Assay: CCL1 SPA Binding Assay
Settings: 125I CCL1 (30 pM) binding to membranes from CHO-K1 cells transfected with CCR8, Wheat Germ Agglutinin SPA beads; typical data
Experimental: Membranes from CHO-K1 cells transfected with human recombinant chemokine CCR8 receptor (ES-136-M) were purchased from Euroscreen. Membrane preparations are stored at −70C in 7.5 mM Tris-Cl pH 7.5, 12.5 mM MgCl2, 0.3 mM EDTA, 1 mM EGTA, 250 mM sucrose until used.
The CCR8 membranes ([…]) were preincubated with Wheat Germ Agglutinin SPA beads (4.05 mg/ml) in assay buffer (50 mM HEPES, 1 mM CaCl2x2H2O, 5 mM MgCl2x6H2O, 75 mM NaCl, 0.1% BSA) at pH=7.4 for 2 hours on ice. A 10-point dose-response curve (final concentrations 50 μM, 16.7 μM, 5.6 μM, 1.9 μM, 0.62 μM, 0.21 μM, 0.069 μM, 0.023 μM) was prepared by diluting compounds by serial dilution 1:3 in DMSO. In the screening plate (Polystyrene NBS plates, Costar Corning 3604) 1 μl from the DMSO solutions of compounds was transferred into each well. 1 μl of DMSO was added to the blank control wells and 1 μl unlabeled CCL1 (300 nM) was added to background control wells. 50 μl of the SPA bead-membrane mixture was added into each well. Finally, 50 μl (30 pM) ^125I CCL1 (2000 Ci/mM) was added to each well. Plates were then incubated at RT with shaking (700 rpm) for 90 minutes followed by 30 minutes at RT without shaking. The plate was read in a Wallac MicroBeta counter for 2 minutes/well.

T1 sequence (P51685 whole entry): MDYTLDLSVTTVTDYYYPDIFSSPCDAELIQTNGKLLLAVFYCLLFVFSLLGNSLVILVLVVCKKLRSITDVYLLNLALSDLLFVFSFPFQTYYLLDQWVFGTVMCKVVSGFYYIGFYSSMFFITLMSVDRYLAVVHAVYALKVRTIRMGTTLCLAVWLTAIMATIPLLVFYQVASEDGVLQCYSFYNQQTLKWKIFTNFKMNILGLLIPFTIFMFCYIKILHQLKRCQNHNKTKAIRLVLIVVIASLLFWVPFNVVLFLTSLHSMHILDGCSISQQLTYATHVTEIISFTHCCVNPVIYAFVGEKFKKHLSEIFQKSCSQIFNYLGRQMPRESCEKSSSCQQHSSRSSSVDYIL

Row | IC50 [nM] | SMILES
1 | 165 | CCCOc1ccccc1CN1CCC2(CC1)CCN(C(=O)c1ccccc1)CC2 [3-benzoyl-9-(2-propoxybenzyl)-3,9-diazaspiro[5.5]undecane trifluoroacetate]
2 | 710 | Cc1noc(C)c1COc1ccccc1CN1CCC2(CC1)CCN(C(=O)c1ccccc1)CC2 [3-benzoyl-9-{2-[(3,5-dimethylisoxazol-4-yl)methoxy]benzyl}-3,9-diazaspiro[5.5]undecane trifluoroacetate]
